Experiments:
[1] = target: Death-associated protein kinase 1 (Homo sapiens) (UniProt P53355)
Description: Binding affinity to DAPK1 (unknown origin) assessed as change in enthalpy by ITC analysis

[2] = target: Death-associated protein kinase 1 (Homo sapiens) (UniProt P53355); remark: listed apart in the source
Description: Binding affinity to DAPK1 (unknown origin) assessed as change in Gibbs free energy by ITC analysis

[3] = target: Death-associated protein kinase 1 (Homo sapiens) (UniProt P53355); remark: listed apart in the source
Description: Binding affinity to DAPK1 (unknown origin) assessed as change in entropy by ITC analysis

Chain of Death-associated protein kinase 1 (Homo sapiens) (P53355 whole entry, looked up): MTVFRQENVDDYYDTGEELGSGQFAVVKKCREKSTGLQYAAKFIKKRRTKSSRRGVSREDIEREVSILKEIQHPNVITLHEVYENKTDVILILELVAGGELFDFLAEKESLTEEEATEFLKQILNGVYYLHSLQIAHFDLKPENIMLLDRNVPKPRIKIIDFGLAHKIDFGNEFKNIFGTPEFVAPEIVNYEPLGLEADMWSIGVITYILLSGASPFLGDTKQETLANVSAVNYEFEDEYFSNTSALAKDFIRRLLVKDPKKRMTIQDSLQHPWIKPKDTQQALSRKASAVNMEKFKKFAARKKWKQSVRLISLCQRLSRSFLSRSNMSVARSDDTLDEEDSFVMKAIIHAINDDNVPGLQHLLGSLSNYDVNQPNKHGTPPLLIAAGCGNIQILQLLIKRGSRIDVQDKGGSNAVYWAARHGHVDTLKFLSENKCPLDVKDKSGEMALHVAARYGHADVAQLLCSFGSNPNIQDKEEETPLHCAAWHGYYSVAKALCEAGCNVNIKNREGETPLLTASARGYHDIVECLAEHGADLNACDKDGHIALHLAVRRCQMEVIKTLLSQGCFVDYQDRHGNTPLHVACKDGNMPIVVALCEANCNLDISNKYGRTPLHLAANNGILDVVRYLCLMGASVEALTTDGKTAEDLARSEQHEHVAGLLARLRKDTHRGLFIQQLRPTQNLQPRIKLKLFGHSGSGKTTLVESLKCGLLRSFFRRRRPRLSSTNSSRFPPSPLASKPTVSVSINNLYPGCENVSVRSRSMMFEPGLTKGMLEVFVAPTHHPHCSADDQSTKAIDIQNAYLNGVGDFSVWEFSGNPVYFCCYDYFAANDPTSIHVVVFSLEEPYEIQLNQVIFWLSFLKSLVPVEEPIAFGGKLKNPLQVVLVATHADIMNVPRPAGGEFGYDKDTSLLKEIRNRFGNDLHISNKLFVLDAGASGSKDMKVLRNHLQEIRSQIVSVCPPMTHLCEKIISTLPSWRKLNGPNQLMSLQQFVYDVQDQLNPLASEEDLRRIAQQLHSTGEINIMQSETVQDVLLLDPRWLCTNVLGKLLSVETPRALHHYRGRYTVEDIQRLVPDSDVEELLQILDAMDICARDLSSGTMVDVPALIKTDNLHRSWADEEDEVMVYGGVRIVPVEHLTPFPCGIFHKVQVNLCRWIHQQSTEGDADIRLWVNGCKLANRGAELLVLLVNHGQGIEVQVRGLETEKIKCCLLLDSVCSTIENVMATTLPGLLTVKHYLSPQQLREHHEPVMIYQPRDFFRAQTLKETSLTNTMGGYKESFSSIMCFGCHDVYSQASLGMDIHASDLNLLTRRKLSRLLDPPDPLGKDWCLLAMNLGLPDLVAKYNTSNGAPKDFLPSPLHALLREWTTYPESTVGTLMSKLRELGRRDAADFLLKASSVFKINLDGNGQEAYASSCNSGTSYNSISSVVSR

O=C(/C=C/c1ccc(O)cc1)c1ccc(O)cc1O
deltaH [1]: -40 kJ/mol
deltaG [2]: -32 kJ/mol
-TdeltaS [3]: 7.95 kJ/mol

— ChEMBL document CHEMBL6127040, “Discovery and optimization of isoliquiritigenin as a death-associated protein kinase 1 inhibitor” (Eur J Med Chem, 2024)
